Assay results taken from US20210269451A1, “PYRIDINYL HETEROCYCLYL COMPOUNDS FOR THE TREATMENT OF AUTOIMMUNE DISEASE” (Hoffmann-La Roche Inc., priority 2018, published 2021).

Molecular target: T1, hTLR9 (Homo sapiens, UniProt Q9NR96)
T1 sequence (Q9NR96 26-1032): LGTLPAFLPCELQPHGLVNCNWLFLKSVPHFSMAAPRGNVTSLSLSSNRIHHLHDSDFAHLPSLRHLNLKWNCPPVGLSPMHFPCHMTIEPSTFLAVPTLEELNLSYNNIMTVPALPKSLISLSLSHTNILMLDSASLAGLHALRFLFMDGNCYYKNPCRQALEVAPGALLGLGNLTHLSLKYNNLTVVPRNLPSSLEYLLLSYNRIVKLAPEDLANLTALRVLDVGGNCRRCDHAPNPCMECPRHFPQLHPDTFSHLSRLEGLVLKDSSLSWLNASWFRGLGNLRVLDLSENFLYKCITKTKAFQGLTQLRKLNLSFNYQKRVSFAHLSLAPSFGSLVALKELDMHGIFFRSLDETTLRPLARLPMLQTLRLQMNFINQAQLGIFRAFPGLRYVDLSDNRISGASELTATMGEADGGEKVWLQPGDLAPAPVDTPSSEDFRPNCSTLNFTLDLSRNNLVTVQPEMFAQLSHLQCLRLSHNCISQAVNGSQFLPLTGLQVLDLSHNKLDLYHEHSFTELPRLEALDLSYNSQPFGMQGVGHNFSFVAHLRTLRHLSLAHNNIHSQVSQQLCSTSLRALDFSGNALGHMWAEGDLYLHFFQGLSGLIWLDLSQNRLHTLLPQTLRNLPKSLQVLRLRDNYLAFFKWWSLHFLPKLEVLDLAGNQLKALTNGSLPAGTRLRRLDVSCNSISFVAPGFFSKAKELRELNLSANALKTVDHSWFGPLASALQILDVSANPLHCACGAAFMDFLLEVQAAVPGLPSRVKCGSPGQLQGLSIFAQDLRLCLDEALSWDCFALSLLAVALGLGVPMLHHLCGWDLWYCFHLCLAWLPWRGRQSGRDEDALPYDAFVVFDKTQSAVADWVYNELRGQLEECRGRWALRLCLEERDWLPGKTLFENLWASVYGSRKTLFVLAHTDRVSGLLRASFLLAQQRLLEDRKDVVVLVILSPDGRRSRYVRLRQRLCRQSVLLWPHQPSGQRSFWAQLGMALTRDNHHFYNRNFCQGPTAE
Assay: HEK293-Blue-hTLR-9 cells assay
Assay type: cell-based
Design: host or cells: HEK293-Blue-hTLR-9 (HEK293)
Settings: HEK293-Blue-hTLR9 cells, ODN2006 stimulation, 20 hrs, SEAP reporter; read-out: HEK/hTLR9 IC50
Description: The following tests were carried out in order to determine the activity of the compounds of formula (I) and (Ia) in HEK293-Blue-hTLR-7/8/9 cells assay.
HEK293-Blue-hTLR-9 cells assay:
A stable HEK293-Blue-hTLR-9 cell line was purchased from InvivoGen (Cat. #: hkb-htlr9, San Diego, Calif., USA). These cells were originally designed for studying the stimulation of human TLR9 by monitoring the activation of NE-KB. A SEAP (secreted embryonic alkaline phosphatase) reporter gene was placed under the control of the IFN-β minimal promoter fused to five NE-κB and AP-1-binding sites. The SEAP was induced by activating NE-κB and AP-1 via stimulating HEK-Blue hTLR9 cells with TLR9 ligands. Therefore the reporter expression was declined by TLR9 antagonist under the stimulation of a ligand, such as ODN2006 (Cat. #: tlrl-2006-1, Invivogen, San Diego, Calif., USA), for incubation of 20 hrs. The cell culture supernatant SEAP reporter activity was determined using QUANTI-Blue™ kit (Cat. #: rep-qb1, Invivogen, San Diego, Calif., USA) at a wavelength of 640 nm, a detection medium that turns purple or blue in the presence of alkaline phosphatase.
HEK293-Blue-hTLR9 cells were incubated at a density of 250,000˜450,000 cells/mL in a volume of 170 μL in a 96-well plate in Dulbecco's Modified Eagle's medium (DMEM) containing 4.5 g/L glucose, 50 U/mL penicillin, […], […], 2 mM L-glutamine, 10% (v/v) heat-inactivated fetal bovine serum with addition of 20 μL test compound in a serial dilution in the presence of final DMSO at 1% and 10 μL of 20 uM ODN2006 in above DMEM, perform incubation under 37° C. in a CO2 incubator for 20 hrs. Then 20 μL of the supernatant from each well was incubated with 180 μL Quanti-blue substrate solution at 37° C. for 2 h and the absorbance was read at 620˜655 nm using a spectrophotometer. The signaling pathway that TLR9 activation leads to downstream NE-κB activation has been widely accepted, and therefore similar reporter assay was modified for evaluating TLR9 antagonist.

Structure (SMILES)	IC50 [nM]
Cc1cc(N2CCC23CN(C[C@H]2CN(c4ccc(C#N)c5ncccc45)C[C@@H](C)O2)C3)ccn1 [Example 15]	71
Cc1cc(N2CCN(C[C@H]3CN(c4ccc(C#N)c5ncccc45)C[C@@H](C)O3)CC2)cc(CO)n1 [Example 50]	134
Cc1cc(N2CC[C@H](F)[C@H](NC[C@H]3CN(c4ccc(C#N)c5ncccc45)C[C@@H](C)O3)C2)cc(CO)n1 [Example 33]	122
Cc1cc(C2CCN(C[C@H]3CN(c4ccc(C#N)c5ncccc45)C[C@@H](C)O3)CC2)cc(N)n1 [Example 43, 5-[(2S,6R)-2-[[4-(2-amino-6-methyl-4-pyridyl)-1-piperidyl]methyl]-6-methyl-morpholin-4-yl]quinoline-8-carbonitrile]	54
Cc1cc(N2CC[C@@H](NC[C@H]3CN(c4ccc(C#N)c5ncccc45)C[C@@H](C)O3)C2)cc(CO)n1 [Example 28]	57
Cc1cc(N2CCOC3(CN(C[C@H]4CN(c5ccc(C#N)c6ncccc56)C[C@@H](C)O4)C3)C2)ccn1 [Example 16]	38
Cc1cc(N(C)C2CN(C[C@H]3CN(c4ccc(C#N)c5ncccc45)C[C@@H](C)O3)C2)cc(C)n1 [Example 11]	40
Cc1cc(N2CCN(C[C@H]3CN(c4ccc(C#N)c5ncccc45)C[C@@H](C)O3)[C@H](C)C2)cc(CO)n1 [Example 4B]	145
C[C@@H]1CN(c2ccc(C#N)c3ncccc23)C[C@H](CN2CC3(C2)CN(c2ccnc(C4CC4)c2)CCO3)O1 [Example 3, 5-[(2S,6R)-2-[[8-(2-cyclopropyl-4-pyridyl)-5-oxa-2,8-diazaspiro[3.5]nonan-2-yl]methyl]-6-methyl-morpholin-4-yl]quinoline-8-carbonitrile]	48
C[C@@H]1CN(c2ccc(C#N)c3ncccc23)C[C@H](CN2CCN(c3cc(N)nc(CO)c3)CC2)O1 [Example 45, 5-[(2S,6R)-2-[[4-[2-amino-6-(hydroxymethyl)-4-pyridyl]piperazin-1-yl]methyl]-6-methyl-morpholin-4-yl]quinoline-8-carbonitrile]	91
Cc1cc(N2CC(NC[C@H]3CN(c4ccc(C#N)c5ncccc45)C[C@@H](C)O3)CC(F)(F)C2)cc(CO)n1 (some centres unmarked) [Example 36]	215
C[C@@H]1CN(c2ccc(C#N)c3ncccc23)C[C@H](CN2CC3(C2)CN(c2ccnc(CO)c2)CCO3)O1 [Example 51]	35
Cc1cc(N2CCOC3CN(CC4CN(c5ccc(C#N)c6ncccc56)CC(C)O4)CC32)cc(C)n1 (single isomer, unassigned) [Example 17A]	154
Cc1cc(N2CC(NC[C@H]3CN(c4ccc(C#N)c5ncccc45)C[C@@H](C)O3)C2)cc(CO)n1 [Example 30]	88
Cc1cc(N2CCC[C@H](N(C)C[C@H]3CN(c4ccc(C#N)c5ncccc45)C[C@@H](C)O3)C2)cc(CO)n1 [Example 38]	39
Cc1cc(NC2CCN(C[C@H]3CN(c4ccc(C#N)c5ncccc45)C[C@@H](C)O3)C2)cc(CO)n1 (some centres unmarked) [Example 6]	41
Cc1cc(N2CCC[C@@H](N(C)C[C@H]3CN(c4ccc(C#N)c5ncccc45)C[C@@H](C)O3)C2)cc(CO)n1 [Example 35]	34
Cc1cc(NC2CN(C[C@H]3CN(c4ccc(C#N)c5ncccc45)C[C@@H](C)O3)C2)cc(C)n1 [Example 7]	39
C[C@@H]1CN(c2ccc(C#N)c3ncccc23)C[C@H](CN[C@H]2CCCN(c3ccnc(N)c3)C2)O1 [Example 22]	34
Cc1cc(N2CCC23CN(C[C@H]2CN(c4ccc(C#N)c5ncccc45)C[C@@H](C)O2)C3)cc(CO)n1 [Example 12]	49
C[C@@H]1CN(c2ccc(C#N)c3ncccc23)C[C@H](CN2CCN(c3ccnc(N)c3)CC2)O1 [Example 19, 5-[(2S,6R)-2-[[4-(2-amino-4-pyridyl)piperazin-1-yl]methyl]-6-methyl-morpholin-4-yl]quinoline-8-carbonitrile]	62
Cc1cc(N2CCN(C[C@H]3CN(c4ccc(C#N)c5ncccc45)C[C@@H](C)O3)[C@@H](C)C2)cc(CO)n1 [Example 4A]	148

Second part, the compound after the results:

IC50 [nM]	Structure (SMILES)
32	Cc1cc(N2CCC3(CN(C[C@H]4CN(c5ccc(C#N)c6ncccc56)C[C@@H](C)O4)C3)C2)cc(C)n1 [Example 9]
< 32	Cc1cc(N2CC3(CN(C[C@H]4CN(c5ccc(C#N)c6ncccc56)C[C@@H](C)O4)C3)C2)cc(C(C)O)n1 (stereo partly drawn) [Example 44, 5-[(2S,6R)-2-[[2-[2-(1-hydroxyethyl)-6-methyl-4-pyridyl]-2,6-diazaspiro[3.3]heptan-6-yl]methyl]-6-methyl-morpholin-4-yl]quinoline-8-carbonitrile]
< 32	Cc1cc(N2CCC(NC[C@H]3CN(c4ccc(C#N)c5ncccc45)C[C@@H](C)O3)CC2)cc(CO)n1 [Example 23]
34	C[C@@H]1CN(c2ccc(C#N)c3ncccc23)C[C@H](CN2CC3(C2)CN(c2ccnc(C4CC4)c2)C3)O1 [Example 49, 5-[(2S,6R)-2[[2-(2-cyclopropyl-4-pyridyl)-2,6-diazaspiro[3.3]heptan-6-yl]methyl]-6-methyl-morpholin-4-yl]quinoline-8-carbonitrile]
< 32	Cc1cc(N2C[C@H]3CN(C[C@H]4CN(c5ccc(C#N)c6ncccc56)C[C@@H](C)O4)C[C@H]3C2)cc(CO)n1 [Example 10]
< 32	Cc1cc(N2CCC23CN(C[C@H]2CN(c4ccc(C#N)c5ncccc45)C[C@@H](C)O2)C3)cc(C)n1 [Example 8]
< 32	Cc1cc(N2CCOC3CN(CC4CN(c5ccc(C#N)c6ncccc56)CC(C)O4)CC32)cc(C)n1 (single isomer, unassigned) [Example 17B]
< 32	Cc1cc(N2CCC[C@@H](NC[C@H]3CN(c4ccc(C#N)c5ncccc45)C[C@@H](C)O3)C2)cc(CO)n1 [Example 24]
< 32	CNc1cc(N2CCN(C[C@H]3CN(c4ccc(C#N)c5ncccc45)C[C@@H](C)O3)CC2)cc(C)n1 [Example 42, 5-[(2R,6S)-2-methyl-6-[[4-[2-methyl-6-(methylamino)-4-pyridyl]piperazin-1-yl]methyl]morpholin-4-yl]quinoline-8-carbonitrile]
< 32	C[C@@H]1CN(c2ccc(C#N)c3ncccc23)C[C@H](CN[C@@H]2CCCN(c3ccnc(N)c3)C2)O1 [Example 21, 5-[(2S,6R)-2-[[[(3R)-1-(2-amino-4-pyridyl)-3-piperidyl]amino]methyl]-6-methyl-morpholin-4-yl]quinoline-8-carbonitrile]
34	Cc1cc(N2CC3(CN(C[C@H]4CN(c5ccc(C#N)c6ncccc56)C[C@@H](C)O4)C3)C2)cc(CO)n1 [Example 1, 5-[(2S,6R)-2-[[2-[2-(hydroxymethyl)-6-methyl-4-pyridyl]-2,6-diazaspiro[3.3]heptan-6-yl]methyl]-6-methyl-morpholin-4-yl]quinoline-8-carbonitrile]
< 32	Cc1cc(N2CCC[C@H](NC[C@H]3CN(c4ccc(C#N)c5ncccc45)C[C@@H](C)O3)C2)cc(CO)n1 [Example 25]
< 32	Cc1cc(N2CCOC3(CN(C[C@H]4CN(c5ccc(C#N)c6ncccc56)C[C@@H](C)O4)C3)C2)cc(C)n1 [Example 14]
